Format in all cases: biochemical
One test deals with T1, recombinant human DPP7 (Homo sapiens, UniProt Q9UHL4).
T1 construct: purchased R&D Systems
Nature of the test: DPP7 inhibition, fluorogenic substrate Lys-Pro-AMC. The method in brief: (§1)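 Inhibitors are titrated in an 8-point series into the enzyme's assay buffer (DMSO no more than 0.5%). Substrate cleavage at 25 °C is followed by fluorescence, excitation 380 nm and emission 460 nm. IC50 values come from a four-variable logistic model.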

Another test deals with T2, recombinant human DPP9 (Homo sapiens, UniProt Q86TI2).
T2 construct: purchased R&D Systems
T2 sequence (Q86TI2 whole entry): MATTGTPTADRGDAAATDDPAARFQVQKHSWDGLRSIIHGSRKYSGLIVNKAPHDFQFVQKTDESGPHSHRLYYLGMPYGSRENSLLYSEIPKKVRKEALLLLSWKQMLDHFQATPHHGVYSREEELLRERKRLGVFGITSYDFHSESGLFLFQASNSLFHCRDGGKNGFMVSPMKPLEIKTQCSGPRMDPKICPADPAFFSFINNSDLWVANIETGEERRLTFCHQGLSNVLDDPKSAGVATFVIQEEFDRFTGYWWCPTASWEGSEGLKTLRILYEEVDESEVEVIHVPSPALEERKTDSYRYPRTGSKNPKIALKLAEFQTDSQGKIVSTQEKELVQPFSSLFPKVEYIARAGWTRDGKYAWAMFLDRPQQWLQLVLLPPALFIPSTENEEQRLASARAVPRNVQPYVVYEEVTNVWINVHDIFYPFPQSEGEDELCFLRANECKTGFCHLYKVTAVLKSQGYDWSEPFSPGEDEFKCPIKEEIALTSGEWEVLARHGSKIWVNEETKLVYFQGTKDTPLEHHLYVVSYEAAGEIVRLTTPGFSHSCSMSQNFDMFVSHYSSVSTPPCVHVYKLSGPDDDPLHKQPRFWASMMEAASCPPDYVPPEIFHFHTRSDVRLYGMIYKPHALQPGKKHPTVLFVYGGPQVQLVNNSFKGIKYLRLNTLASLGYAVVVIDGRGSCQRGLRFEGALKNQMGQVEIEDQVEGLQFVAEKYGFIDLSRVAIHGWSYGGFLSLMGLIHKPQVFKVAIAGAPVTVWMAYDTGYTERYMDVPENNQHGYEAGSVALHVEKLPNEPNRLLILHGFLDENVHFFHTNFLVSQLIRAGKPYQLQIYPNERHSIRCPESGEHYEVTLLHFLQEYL
The test can be described thus: DPP9 inhibition, fluorogenic substrate H-Gly-Pro-AMC. The method in brief: as §1

In a further test the target is DPP4 (Homo sapiens, UniProt P27487). Nature of the test: DPP4 inhibition, fluorogenic substrate H-Gly-Pro-AMC. On the set-up: purchased R&D Systems.
Sequence of DPP4 (P27487 whole entry): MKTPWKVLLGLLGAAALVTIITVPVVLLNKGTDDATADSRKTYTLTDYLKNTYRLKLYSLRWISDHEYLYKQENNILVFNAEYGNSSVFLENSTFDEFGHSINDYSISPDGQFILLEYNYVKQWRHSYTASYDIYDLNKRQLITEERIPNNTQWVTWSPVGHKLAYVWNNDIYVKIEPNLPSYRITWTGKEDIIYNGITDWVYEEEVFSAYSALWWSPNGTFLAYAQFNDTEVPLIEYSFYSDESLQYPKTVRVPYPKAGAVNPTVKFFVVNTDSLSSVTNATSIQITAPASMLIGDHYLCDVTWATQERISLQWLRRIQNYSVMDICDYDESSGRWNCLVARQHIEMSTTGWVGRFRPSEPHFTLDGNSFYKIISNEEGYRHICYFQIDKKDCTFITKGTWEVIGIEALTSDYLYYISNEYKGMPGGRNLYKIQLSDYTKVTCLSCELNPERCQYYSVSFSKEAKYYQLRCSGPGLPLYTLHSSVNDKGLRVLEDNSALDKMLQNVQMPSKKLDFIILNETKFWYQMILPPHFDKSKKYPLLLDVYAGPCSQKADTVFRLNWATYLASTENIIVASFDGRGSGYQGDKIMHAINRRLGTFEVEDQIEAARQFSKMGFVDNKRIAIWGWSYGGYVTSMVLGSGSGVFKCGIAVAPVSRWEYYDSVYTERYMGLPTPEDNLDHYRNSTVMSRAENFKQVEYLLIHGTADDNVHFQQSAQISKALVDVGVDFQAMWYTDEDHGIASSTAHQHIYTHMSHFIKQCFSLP
In another test the target is T3, Recombinant human FAP (Homo sapiens, UniProt Q12884).
T3 construct: purchased R&D systems
T3 sequence (Q12884 1-760): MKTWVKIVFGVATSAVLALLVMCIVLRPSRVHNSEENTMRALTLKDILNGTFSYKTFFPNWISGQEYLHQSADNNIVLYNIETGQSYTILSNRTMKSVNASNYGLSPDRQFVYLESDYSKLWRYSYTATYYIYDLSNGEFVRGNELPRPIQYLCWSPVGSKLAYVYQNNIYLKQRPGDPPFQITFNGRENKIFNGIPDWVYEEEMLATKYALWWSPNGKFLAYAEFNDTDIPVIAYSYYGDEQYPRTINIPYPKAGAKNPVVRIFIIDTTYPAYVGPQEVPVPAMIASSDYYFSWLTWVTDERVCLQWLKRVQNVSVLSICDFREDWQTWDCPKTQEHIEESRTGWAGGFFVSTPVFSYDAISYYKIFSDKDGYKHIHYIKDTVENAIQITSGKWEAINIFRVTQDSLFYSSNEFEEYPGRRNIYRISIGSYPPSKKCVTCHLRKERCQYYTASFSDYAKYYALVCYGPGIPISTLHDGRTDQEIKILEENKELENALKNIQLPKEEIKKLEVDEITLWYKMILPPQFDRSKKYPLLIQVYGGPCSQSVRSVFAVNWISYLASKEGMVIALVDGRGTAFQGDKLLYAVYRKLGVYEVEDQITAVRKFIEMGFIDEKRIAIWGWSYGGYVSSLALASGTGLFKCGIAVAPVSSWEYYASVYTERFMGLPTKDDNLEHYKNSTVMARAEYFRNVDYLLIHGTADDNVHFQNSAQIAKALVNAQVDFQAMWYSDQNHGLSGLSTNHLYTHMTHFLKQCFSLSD
Nature of the test: FAP inhibition, fluorogenic substrate Z-Gly-Pro-AMC. The method in brief:
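Eight-point compound dilutions (≤0.1% DMSO) were incubated at 25° C with 10 ng recombinant human FAP in Tris pH 7.5/1 M NaCl/BSA buffer and Z-Gly-Pro-AMC. Inhibition was taken as % drop in fluorescence rate (380/460 nm) against uninhibited control; IC50 came from a four-parameter logistic fit.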

The next test addresses T4, recombinant human DPP8 (Homo sapiens, UniProt Q6V1X1).
T4 construct: purchased PBS Bioscience
The test can be described thus: DPP8 inhibition, fluorogenic substrate Z-Ala-Pro-AMC. The method in brief: as §1

For a further test, the target named is T5, recombinant human PREP (Homo sapiens, UniProt P48147).
T5 construct: purchased R&D System
T5 sequence (P48147 1-710): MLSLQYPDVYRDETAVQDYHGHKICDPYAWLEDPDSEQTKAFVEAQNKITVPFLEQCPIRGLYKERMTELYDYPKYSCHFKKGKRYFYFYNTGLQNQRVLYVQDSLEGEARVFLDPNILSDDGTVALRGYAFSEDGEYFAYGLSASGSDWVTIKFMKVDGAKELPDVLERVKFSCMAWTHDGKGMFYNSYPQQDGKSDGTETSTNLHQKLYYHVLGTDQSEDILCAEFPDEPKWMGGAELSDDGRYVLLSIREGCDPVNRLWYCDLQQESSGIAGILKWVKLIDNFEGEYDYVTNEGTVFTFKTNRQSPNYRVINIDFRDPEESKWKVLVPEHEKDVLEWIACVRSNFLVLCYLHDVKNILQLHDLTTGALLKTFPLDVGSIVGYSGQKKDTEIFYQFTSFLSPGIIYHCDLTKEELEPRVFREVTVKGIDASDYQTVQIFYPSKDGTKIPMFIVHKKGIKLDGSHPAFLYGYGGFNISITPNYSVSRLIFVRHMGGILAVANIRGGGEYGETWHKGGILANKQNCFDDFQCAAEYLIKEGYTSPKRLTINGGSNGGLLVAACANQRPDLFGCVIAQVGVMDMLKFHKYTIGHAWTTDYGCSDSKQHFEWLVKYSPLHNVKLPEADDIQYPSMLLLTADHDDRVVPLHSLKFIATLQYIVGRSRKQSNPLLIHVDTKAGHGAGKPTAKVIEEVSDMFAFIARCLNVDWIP
The test can be described thus: PREP inhibition, fluorogenic substrate Z-Gly-Pro-AMC. Particulars: Inhibitory Activity (IC50, nM) PREP. The method in brief:
as §1

The mark [1] stands for this setting: recombinant human FAP, substrate Z-Gly-Pro-AMC.
The mark [2] stands for this setting: 25° C., H-Gly-Pro-AMC substrate.
Where [3] appears, read: 25° C., Z-Gly-Pro-AMC substrate.
The mark [4] stands for this setting: 25° C., Z-Ala-Pro-AMC substrate.

Data on 14 compounds can be found in US11655235B2, “Pyrrolidine and piperidine compounds” (YUHAN CORPORATION, priority 2019, dated 2023).

Where two headings read alike, the source gives them in different places.

T4 sequence (Q6V1X1 whole entry): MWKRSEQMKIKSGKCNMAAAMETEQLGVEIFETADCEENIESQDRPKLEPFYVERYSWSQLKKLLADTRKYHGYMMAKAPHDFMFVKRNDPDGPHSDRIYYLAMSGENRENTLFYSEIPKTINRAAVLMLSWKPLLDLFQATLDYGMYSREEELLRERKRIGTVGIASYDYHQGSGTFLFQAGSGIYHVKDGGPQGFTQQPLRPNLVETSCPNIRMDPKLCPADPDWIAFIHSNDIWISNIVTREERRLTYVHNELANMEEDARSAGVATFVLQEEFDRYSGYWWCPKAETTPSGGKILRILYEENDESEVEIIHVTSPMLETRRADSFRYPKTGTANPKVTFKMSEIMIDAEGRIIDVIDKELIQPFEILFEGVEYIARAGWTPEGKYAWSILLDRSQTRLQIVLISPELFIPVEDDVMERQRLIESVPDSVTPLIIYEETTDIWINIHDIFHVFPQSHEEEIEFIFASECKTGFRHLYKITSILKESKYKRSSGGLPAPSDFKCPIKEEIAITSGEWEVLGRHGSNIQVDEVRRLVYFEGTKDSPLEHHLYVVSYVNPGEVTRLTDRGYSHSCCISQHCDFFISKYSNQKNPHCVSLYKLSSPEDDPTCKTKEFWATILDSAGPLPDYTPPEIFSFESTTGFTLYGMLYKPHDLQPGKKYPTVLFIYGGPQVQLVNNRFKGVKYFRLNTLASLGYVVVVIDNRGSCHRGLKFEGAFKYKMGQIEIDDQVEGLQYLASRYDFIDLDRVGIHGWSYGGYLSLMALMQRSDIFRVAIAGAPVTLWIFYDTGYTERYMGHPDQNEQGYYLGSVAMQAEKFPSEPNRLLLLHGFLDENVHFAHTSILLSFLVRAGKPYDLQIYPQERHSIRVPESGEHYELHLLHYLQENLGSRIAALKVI

In general, IC50 refers to the point on the concentration scale where inhibition reaches its midpoint. Turning to `COc1ccc2ncccc2c1N[C@H]1CCN(CC(=O)N2C[C@@H](F)C[C@H]2C#N)C1` [Example 260, (2S,4S)-4-fluoro-1-[2-[(3S)-3-[(6-methoxy-5-quinolyl)amino]pyrrolidin-1-yl]acetyl]pyrrolidine-2-carbonitrile], the IC50 on recombinant human DPP7 (recombinant human DPP7) came out at 8280 nM; at recombinant human DPP9 (recombinant human DPP9), 7710 nM; on DPP4 (recombinant human DPP4), 741 nM; at Recombinant human FAP (setting [1]) it was 5.8 nM; on recombinant human DPP8 (recombinant human DPP8) it was 20800 nM; on recombinant human PREP (recombinant human PREP), 6500 nM.
On to `COc1cc2nc(Cl)nc(NC3CCN(CC(=O)N4CCC[C@H]4C#N)CC3)c2cc1OC` [Example 358, (2S)-1-[2-[4-[(2-chloro-6,7-dimethoxy-quinazolin-4-yl)amino]-1-piperidyl]acetyl]pyrrolidine-2-carbonitrile], for which the IC50 on recombinant human DPP7 (recombinant human DPP7) is 1440 nM; on recombinant human DPP9 (recombinant human DPP9), 64600 nM; on DPP4 (recombinant human DPP4), more than 10000 nM; at Recombinant human FAP (setting [1]) it was 3.7 nM; on recombinant human DPP8 (recombinant human DPP8), 30000 nM; on recombinant human PREP (recombinant human PREP) it was 11800 nM.
Regarding `COc1ccc2nccc(O[C@H]3CCN(CC(=O)N4CC(F)(F)C[C@H]4C#N)C3)c2c1` [Example 103, (S)-4,4-difluoro-1-(2-((S)-3-((6-methoxyquinolin-4-yl)oxy)pyrrolidin-1-yl)acetyl)pyrrolidine-2-carbonitrile], the 50% inhibitory concentration (IC50) at recombinant human DPP7 was 174 nM; at recombinant human DPP9 (setting [2]), 4750 nM; at DPP4 (setting [2]), more than 1000 nM; at Recombinant human FAP (setting [3]), 0.68 nM; on recombinant human DPP8 (setting [4]) it was 7680 nM; on recombinant human PREP (setting [3]) it was 5670 nM.
Turning to `N#C[C@@H]1C[C@H](F)CN1C(=O)CN1CC[C@H](Nc2cccc3ncc(Cl)cc23)C1` [Example 256, (2S,4S)-4-fluoro-1-[2-[(3S)-3-[(3-chloro-5-quinolyl)amino]pyrrolidin-1-yl]acetyl]pyrrolidine-2-carbonitrile], the IC50 on recombinant human DPP7 (recombinant human DPP7) turned out to be 1790 nM; at recombinant human DPP9 (recombinant human DPP9), 6960 nM; on DPP4 (recombinant human DPP4), 1880 nM; on Recombinant human FAP (setting [1]) it was 0.8 nM; at recombinant human DPP8 (recombinant human DPP8), 3350 nM; on recombinant human PREP (recombinant human PREP) it was 603 nM.
For the compound `COc1cc(N[C@H]2CCN(CC(=O)N3C[C@@H](F)C[C@H]3C#N)C2)c2cccnc2c1` [Example 257, (2S,4S)-4-fluoro-1-[2-[(3S)-3-[(7-methoxy-5-quinolyl)amino]pyrrolidin-1-yl]acetyl]pyrrolidine-2-carbonitrile], the 50% inhibitory concentration (IC50) at recombinant human DPP7 (recombinant human DPP7) is 289 nM; on recombinant human DPP9 (recombinant human DPP9), 6560 nM; at DPP4 (recombinant human DPP4), 694 nM; at Recombinant human FAP (setting [1]), 0.9 nM; at recombinant human DPP8 (recombinant human DPP8) it was 4540 nM; on recombinant human PREP (recombinant human PREP), 1530 nM.
Regarding `N#C[C@@H]1CC(F)(F)CN1C(=O)CN1CC[C@H](Nc2cccc3sccc23)C1` [Example 9, (S)-1-(2-((S)-3-(benzo[b]thiophen-4-ylamino)pyrrolidin-1-yl)acetyl)-4,4-difluoropyrrolidine-2-carbonitrile], the concentration for half-maximal inhibition (IC50) at recombinant human DPP7 was 75.1 nM; on recombinant human DPP9 (setting [2]), 12300 nM; on DPP4 (setting [2]) it was more than 1000 nM; at Recombinant human FAP (setting [3]), 1.1 nM; on recombinant human DPP8 (setting [4]), 213 nM; on recombinant human PREP (setting [3]) it was more than 100000 nM.
On to `N#C[C@@H]1CCCN1C(=O)CN1CC[C@H](Nc2cc(F)cc3ncccc23)C1` [Example 236, (2S)-1-[2-[(3S)-3-[(7-fluoro-5-quinolyl)amino]pyrrolidin-1-yl]acetyl]pyrrolidine-2-carbonitrile], for which the IC50 is 3470 nM on recombinant human DPP7 (recombinant human DPP7); 18800 nM at recombinant human DPP9 (recombinant human DPP9); more than 10000 nM at DPP4 (recombinant human DPP4); 1.5 nM at Recombinant human FAP (setting [1]); more than 100000 nM on recombinant human DPP8 (recombinant human DPP8); 8900 nM at recombinant human PREP (recombinant human PREP).
For the compound `Cc1ccc(N[C@H]2CCN(CC(=O)N3C[C@@H](F)C[C@H]3C#N)C2)c2cccnc12` [Example 262, (2S,4S)-4-fluoro-1-[2-[(3S)-3-[(8-methyl-5-quinolyl)amino]pyrrolidin-1-yl]acetyl]pyrrolidine-2-carbonitrile], the IC50 at recombinant human DPP7 (recombinant human DPP7) came out at 452 nM; at recombinant human DPP9 (recombinant human DPP9), 3560 nM; at DPP4 (recombinant human DPP4) it was 1360 nM; on Recombinant human FAP (setting [1]) it was 1.2 nM; at recombinant human DPP8 (recombinant human DPP8), 3010 nM; at recombinant human PREP (recombinant human PREP), 1850 nM.
Take `N#C[C@@H]1C[C@H](F)CN1C(=O)CN1CCC(Nc2cncc3ccccc23)CC1` [Example 339, (2S,4S)-4-fluoro-1-[2-[4-(4-isoquinolylamino)-1-piperidyl]acetyl]pyrrolidine-2-carbonitrile]: the half-maximal inhibitory concentration (IC50) at recombinant human DPP7 (recombinant human DPP7) is 555 nM; at recombinant human DPP9 (recombinant human DPP9), more than 30000 nM; at DPP4 (recombinant human DPP4), 8790 nM; at Recombinant human FAP (setting [1]) it was 11.4 nM; on recombinant human DPP8 (recombinant human DPP8), more than 10000 nM; at recombinant human PREP (recombinant human PREP), 3590 nM.
`N#C[C@@H]1CC(F)(F)CN1C(=O)CN1CC[C@H](Oc2cccc3cnccc23)C1` [Example 106, (S)-4,4-difluoro-1-(2-((S)-3-(isoquinolin-5-yloxy)pyrrolidin-1-yl)acetyl)pyrrolidine-2-carbonitrile]: the IC50 on recombinant human DPP7 is 41.6 nM; at recombinant human DPP9 (setting [2]) it was 10300 nM; at DPP4 (setting [2]), more than 1000 nM; on Recombinant human FAP (setting [3]) it was 1.88 nM; at recombinant human DPP8 (setting [4]), 8280 nM; on recombinant human PREP (setting [3]), 4310 nM.
With `N#C[C@@H]1C[C@H](F)CN1C(=O)CN1CC[C@H](Nc2cc(F)cc3ncccc23)C1` [Example 269, (2S,4S)-4-fluoro-1-[2-[(3S)-3-[(7-fluoro-5-quinolyl)amino]pyrrolidin-1-yl]acetyl]pyrrolidine-2-carbonitrile], the half-inhibitory concentration (IC50) was 812 nM at recombinant human DPP7 (recombinant human DPP7); 4920 nM at recombinant human DPP9 (recombinant human DPP9); 2840 nM at DPP4 (recombinant human DPP4); 1.2 nM on Recombinant human FAP (setting [1]); 7180 nM on recombinant human DPP8 (recombinant human DPP8); 2310 nM at recombinant human PREP (recombinant human PREP).
On to `N#C[C@@H]1CC(F)(F)CN1C(=O)CN1CC[C@H](Nc2cncc3ccoc23)C1` [Example 12, (S)-4,4-difluoro-1-(2-((S)-3-(furo[3,2-c]pyridin-7-ylamino)pyrrolidin-1-yl)acetyl)pyrrolidine-2-carbonitrile], for which the IC50 on recombinant human DPP7 was less than 30 nM; at recombinant human DPP9 (setting [2]) it was 17700 nM; at DPP4 (setting [2]) it was more than 1000 nM; on Recombinant human FAP (setting [3]), 0.5 nM; on recombinant human DPP8 (setting [4]) it was 371 nM; on recombinant human PREP (setting [3]), more than 100000 nM.
For `N#C[C@@H]1CCCN1C(=O)CN1CC[C@H](Oc2cccc3cccnc23)C1` [Example 64, (S)-1-(2-((S)-3-(quinolin-8-yloxy)pyrrolidin-1-yl)acetyl)pyrrolidine-2-carbonitrile], the half-inhibitory concentration (IC50) at recombinant human DPP7 was 3560 nM; at recombinant human DPP9 (setting [2]), 15700 nM; against DPP4 (setting [2]) it was more than 1000 nM; on Recombinant human FAP (setting [3]) it was 19 nM; on recombinant human DPP8 (setting [4]), more than 100000 nM; at recombinant human PREP (setting [3]), 84000 nM.
For the compound `N#C[C@@H]1CCCN1C(=O)CN1CC[C@H](Nc2cccc3sccc23)C1` [Example 20, (S)-1-(2-((S)-3-(benzo[b]thiophen-4-ylamino)pyrrolidin-1-yl)acetyl)pyrrolidine-2-carbonitrile], the IC50 on recombinant human DPP7 was 2120 nM; on recombinant human DPP9 (setting [2]) it was 69100 nM; against DPP4 (setting [2]) it was more than 1000 nM; at Recombinant human FAP (setting [3]), 4.53 nM; on recombinant human DPP8 (setting [4]) it was 23100 nM; on recombinant human PREP (setting [3]) it was 7230 nM.
